How the values were obtained:
[1] = biological target: T1, Mitogen-activated protein kinase 12 (Homo sapiens, UniProt P53778); experiment: (§1) Fluorescence Resonance Energy Transfer (FRET) Assay: The enzyme inhibitory activity of test compounds was determined by fluorescence resonance energy transfer (FRET) using synthetic peptides labelled with both donor and acceptor fluorophores (Z-LYTE, Invitrogen). Recombinant, phosphorylated p38 MAPK (MAPK12:Millipore) was diluted in HEPES buffer, mixed with compound at the desired final concentrations and incubated for 2 hr at RT. The FRET peptide (2 uM) and ATP (100 uM) were next added to the enzyme/compound mixture and incubated for 1 hr. Development reagent (protease) was added for 1 hr prior to detection in a fluorescence microplate reader. The site-specific protease only cleaves non-phosphorylated peptide and eliminates the FRET signal. Phosphorylation levels of each reaction were calculated using the ratio of coumarin emission (donor) over fluorescein emission (acceptor) with […].
T1 sequence (P53778 whole entry): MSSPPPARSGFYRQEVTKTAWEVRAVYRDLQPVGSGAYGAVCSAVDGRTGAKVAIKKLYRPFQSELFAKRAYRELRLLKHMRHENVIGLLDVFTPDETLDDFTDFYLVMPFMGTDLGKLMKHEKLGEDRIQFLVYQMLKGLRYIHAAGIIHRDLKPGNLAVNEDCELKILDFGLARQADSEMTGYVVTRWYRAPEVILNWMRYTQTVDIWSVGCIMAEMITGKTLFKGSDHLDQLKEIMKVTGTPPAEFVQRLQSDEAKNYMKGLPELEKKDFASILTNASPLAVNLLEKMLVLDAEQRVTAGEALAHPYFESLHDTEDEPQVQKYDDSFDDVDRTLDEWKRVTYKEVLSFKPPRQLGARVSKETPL

[2] = biological target: Proto-oncogene tyrosine-protein kinase Src (Homo sapiens, UniProt P12931); experiment: as §1
[3] = biological target: Tyrosine-protein kinase HCK (Homo sapiens, UniProt P08631); experiment: as §1

| IC50 [1] | IC50 [2] | IC50 [3] | SMILES |
| --- | --- | --- | --- |
| 39 nM | 8 nM | 4 nM | Cc1ccc(-n2nc(C(C)C)cc2NC(=O)Nc2ccc(Oc3ccnc4[nH]c(=O)cnc34)c3ccccc23)cc1 |
| 89 nM | 6 nM |  | CC(C)(C)c1cc(NC(=O)Nc2ccc(Oc3ccnc4[nH]c(=O)cnc34)c3ccccc23)n(-c2ccc(Cl)c(Cl)c2)n1 |
| 41 nM |  | 3 nM | Cc1ccc(-n2nc(C(C)(C)C)cc2NC(=O)Nc2ccc(Oc3ccnc4[nH]c(=O)cnc34)c3ccccc23)s1 |

Source: ChEMBL document CHEMBL3639041, “Respiratory formulations and compounds for use therein” (2015)
